ChEMBL document CHEMBL5126607, “Discovery and In Vivo Evaluation of ACT-660602: A Potent and Selective Antagonist of the Chemokine Receptor CXCR3 for Autoimmune Diseases” (J Med Chem, 2022)
Values after ≈ are worked out from the molar mass of the structure shown.

How the values were obtained:
[1] = target: T1, C-X-C chemokine receptor type 3 (Homo sapiens, UniProt P49682)
T1 sequence (P49682 whole entry): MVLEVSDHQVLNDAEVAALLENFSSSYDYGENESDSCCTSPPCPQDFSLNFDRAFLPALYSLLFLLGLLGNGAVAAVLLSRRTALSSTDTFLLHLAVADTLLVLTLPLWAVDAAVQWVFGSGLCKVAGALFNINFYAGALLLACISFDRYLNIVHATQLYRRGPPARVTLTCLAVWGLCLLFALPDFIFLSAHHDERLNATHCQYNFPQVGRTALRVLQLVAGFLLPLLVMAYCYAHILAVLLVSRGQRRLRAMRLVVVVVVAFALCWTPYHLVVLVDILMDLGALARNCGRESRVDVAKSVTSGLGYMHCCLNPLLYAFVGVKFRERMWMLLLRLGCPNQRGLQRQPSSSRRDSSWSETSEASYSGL
Description: Antagonist activity at recombinant human CXCR3 expressed in human CHO-K1 cells co-expressing Galpha15 incubated for 10 mins by Fluo-4AM dye based FLIPR assay

[2] = Half life in BALB/c mouse at 1 mg/kg, iv and 10 mg/kg, po; settings: in vivo
in vivo [3] = settings: Balb/c, mouse, po, 10 mg/kg
[4] = Fractional unbound plasma concentration in mouse at 1 mg/kg, iv and 10 mg/kg, po
[5] = target: T1, C-X-C chemokine receptor type 3; remark: listed apart in the source
Description: Antagonist activity at recombinant human CXCR3 in human U2SO cells assessed as reduction in CXCL10-induced beta-arrestin recruitment by TANGO assay

in vivo [6] = settings: Balb/c, mouse, po, 10 mg/kg; remark: listed apart in the source
in vivo [7] = settings: Balb/c, mouse, po, 10 mg/kg; remark: listed apart in the source
[8] = target: T1, C-X-C chemokine receptor type 3; remark: listed apart in the source
Description: Inhibition of CXCR3 receptor internalization in human venous whole blood incubated for 30 mins by flow cytometer analysis

[9] = target: T2, Voltage-gated inwardly rectifying potassium channel KCNH2 (Homo sapiens, UniProt Q12809); assay: Inhibition of hERG expressed in CHO cells by Q patch-clamp method
T2 sequence (Q12809 whole entry): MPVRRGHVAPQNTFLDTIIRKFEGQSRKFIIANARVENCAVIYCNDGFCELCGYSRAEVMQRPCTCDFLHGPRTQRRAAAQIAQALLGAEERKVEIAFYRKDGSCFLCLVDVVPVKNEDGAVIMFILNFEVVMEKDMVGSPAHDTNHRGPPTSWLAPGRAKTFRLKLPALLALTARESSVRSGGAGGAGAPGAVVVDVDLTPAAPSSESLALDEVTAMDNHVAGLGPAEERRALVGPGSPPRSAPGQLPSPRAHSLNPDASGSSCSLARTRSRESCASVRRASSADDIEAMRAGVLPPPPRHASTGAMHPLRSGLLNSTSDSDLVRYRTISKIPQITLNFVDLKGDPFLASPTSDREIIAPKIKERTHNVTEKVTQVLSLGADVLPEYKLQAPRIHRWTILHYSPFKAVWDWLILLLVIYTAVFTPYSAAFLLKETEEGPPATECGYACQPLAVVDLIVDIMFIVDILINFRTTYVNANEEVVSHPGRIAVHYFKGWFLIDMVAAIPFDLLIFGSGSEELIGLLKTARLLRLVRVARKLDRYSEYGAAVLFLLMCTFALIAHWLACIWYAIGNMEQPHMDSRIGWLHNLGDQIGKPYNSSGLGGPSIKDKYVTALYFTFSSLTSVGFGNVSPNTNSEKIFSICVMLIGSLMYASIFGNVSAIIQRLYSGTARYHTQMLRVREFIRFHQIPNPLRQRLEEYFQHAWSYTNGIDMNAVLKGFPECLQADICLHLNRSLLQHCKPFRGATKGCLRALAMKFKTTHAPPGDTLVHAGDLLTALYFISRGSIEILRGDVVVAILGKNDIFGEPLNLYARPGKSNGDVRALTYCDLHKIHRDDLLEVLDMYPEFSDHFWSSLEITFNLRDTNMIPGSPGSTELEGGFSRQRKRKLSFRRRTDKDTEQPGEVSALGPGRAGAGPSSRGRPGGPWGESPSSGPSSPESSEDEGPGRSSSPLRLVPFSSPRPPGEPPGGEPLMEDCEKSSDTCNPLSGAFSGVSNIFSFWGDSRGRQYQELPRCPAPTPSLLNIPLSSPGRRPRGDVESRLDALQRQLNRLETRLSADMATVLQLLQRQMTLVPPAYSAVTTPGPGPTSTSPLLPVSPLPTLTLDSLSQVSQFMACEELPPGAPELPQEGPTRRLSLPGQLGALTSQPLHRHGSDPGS

in vivo [10] = settings: Balb/c, mouse, po, 10 mg/kg; remark: listed apart in the source
in vitro = settings: human, microsomes
in vivo [11] = settings: Wistar, rat, po, 2 mg/kg
in vivo [12] = settings: Wistar, rat, po, 2 mg/kg; remark: listed apart in the source
in vivo [13] = settings: Wistar, rat, po, 2 mg/kg; remark: listed apart in the source
[14] = Fractional unbound plasma concentration in rat at 0.2 mg/kg, iv and 2 mg/kg, po
[15] = Half life in Wistar rat at 0.2 mg/kg, iv and 2 mg/kg, po; settings: in vivo
in vivo [16] = settings: Wistar, rat, po, 2 mg/kg; remark: listed apart in the source
[17] = Fractional unbound plasma concentration in Wistar rat at 0.5 mg/kg, iv and 2 mg/kg, po; settings: in vivo
in vivo [18] = settings: beagle, dog, po, 2 mg/kg
[19] = target: T2, Voltage-gated inwardly rectifying potassium channel KCNH2; assay: Inhibition of hERG by manual patch clamp method
[20] = Fractional unbound plasma concentration in Beagle dog at 0.5 mg/kg, iv and 2 mg/kg, po
[21] = Metabolic stability in Beagle dog hepatocyte assessed as intrinsic clearance measured per 10^6 cells in presence of NADPH regenerating system by LC-MS/MS analysis; settings: hepatocytes
[22] = Metabolic stability in rat hepatocyte assessed as intrinsic clearance measured per 10^6 cells in presence of NADPH regenerating system by LC-MS/MS analysis; settings: hepatocytes
hERG = hERG (Homo sapiens, UniProt Q12809); assay: Inhibition of hERG expressed in CHO cells 3 uM at by Q patch-clamp method relative to control; assay type: toxicity, cell-based; settings: CHO cells that express hERG
Chain of hERG (Q12809 whole entry): as above

[23] = Half life in Wistar rat at 0.5 mg/kg, iv and 2 mg/kg, po; settings: in vivo
[24] = Lipophilicity, log D of the compound at pH 7.4; settings: buffer
in vivo [25] = settings: beagle, dog, po, 2 mg/kg; remark: listed apart in the source
[26] = Fractional unbound plasma concentration in Balb/c mouse at 10 mg/kg, po
in vivo [27] = settings: beagle, dog, po, 2 mg/kg; remark: listed apart in the source
[28] = Half life in Beagle dog at 0.5 mg/kg, iv and 2 mg/kg, po; settings: in vivo
in vivo [29] = settings: beagle, dog, po, 2 mg/kg; remark: listed apart in the source
[30] = Solubility of the compound in pH 7 buffer
[31] = Solubility of the compound in FeSSIF
[32] = Solubility of the compound in FaSSIF

Compound	IC50 [1]	Tmax (in vivo [3])	fraction unbound [4]	IC50 [5]	AUC (in vivo [7])	IC50 [8]	IC50 [9]	Cmax (in vivo [10])	microsomal CLint at 1 µM (in vitro)	AUC (in vivo [11])	Tmax (in vivo [12])	Cmax (in vivo [13])	bioavailability (in vivo [16])	bioavailability (in vivo [18])	hepatocyte CLint [21]	hepatocyte CLint [22]	half-life [23]	logD [24]	AUC (in vivo [25])	Cmax (in vivo [27])	further results
C[C@@H]1CN(c2scnc2-c2nc3ccccc3[nH]2)CCN1C(=O)Cn1cnc2cccnc21	5.9 nM	60 min	0.122	830 nM	60.7 ng·h/mL	554 nM	2200 nM	95.2 ng/mL	12 µL/min/mg	–	–	–	–	–	–	–	–	–	–	–	half-life [2]: 6 min; bioavailability (in vivo [6]): 4%
C[C@@H]1CN(c2sc(C(F)(F)F)nc2-c2nc3ccccc3[nH]2)CCN1C(=O)Cn1cnc2cccnc21	1.6 nM	–	0.01	31 nM	–	70 nM	1750 nM	–	89 µL/min/mg	191 ng·h/mL	36 min	91.3 ng/mL	7%	–	–	–	–	–	–	–	fraction unbound [14]: 0.017; half-life [15]: 48 min
CCOc1ncc(-c2nc(C(F)(F)F)sc2N2CCN(C(=O)Cn3nc(C)nc3C)[C@H](C)C2)cn1	7 nM	30 min	–	173 nM	63600 ng·h/mL	364 nM	> 20000 nM	11600 ng/mL	< 10 µL/min/mg	2850 ng·h/mL	30 min	574 ng/mL	52%	52%	5.1 µL/min/1e6 cells	< 2 µL/min/1e6 cells	372 min	2.8	861 ng·h/mL	415 ng/mL	fraction unbound [17]: 0.101; IC50 [19]: 44000 nM; fraction unbound [20]: 0.328; inhibition at 3 µM (hERG): 4%; fraction unbound [26]: 0.023; half-life [28]: 60 min; Tmax (in vivo [29]): 30 min
Cc1nc(C)n(CC(=O)N2CCN(c3sc(C(F)(F)F)nc3-c3cnc(C(F)(F)F)nc3)C[C@H]2C)n1	–	–	–	–	–	–	–	–	< 10 µL/min/mg	14000 ng·h/mL	30 min	1520 ng/mL	80%	80%	< 2 µL/min/1e6 cells	< 2 µL/min/1e6 cells	426 min	2.9	20000 ng·h/mL	1380 ng/mL	solubility [30]: 387 µg/mL (≈ 724 µM); half-life [28]: 870 min; solubility [31]: 530 µg/mL (≈ 992 µM); Tmax (in vivo [29]): 60 min; solubility [32]: 450 µg/mL (≈ 842 µM)
